Data: US20250136595A1, “ACYLATED HETEROCYCLIC QUINAZOLINE DERIVATIVES AS INHIBITORS OF ERBB2” (Enliven Inc., priority 2022, published 2025)

What was measured:
Ba/F3 ERBB2 YVMA = Ba/F3 ERBB2 YVMA (Homo sapiens, UniProt P04626, DUP772-775, cells depend on it); test: Cell viability assay (CellTiter Glo) in Ba/F3 cells engineered to express ERBB2 YVMA; assay type: cell-based, mouse; conditions: Ba/F3 cells expressing human ERBB2 YVMA mutant, 72 hours, % viability, read-out: Ba/F3 ERBB2 YVMA IC50
Outline: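 IL-3-independent mouse Ba/F3 line stably transduced with human ERBB2 YVMA, seeded at 3000 cells/well, exposed to serially diluted compound (≤0.1% DMSO) for 72 h at 37° C. ATP read by CellTiter Glo luminescence, normalised to DMSO and media-only controls; sigmoidal nonlinear regression fit.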

[1] = target: T1, phosphorylated ERBB2 (pERBB2) (Homo sapiens, UniProt P04626); test: Detection of phosphorylated ERBB2 (pERBB2) by ELISA in BT-474 cells; assay type: cell-based; conditions: four hour incubation with compound
T1 construct: endogenous in cells; host or cells: BT-474
T1 sequence (P04626 23-1255): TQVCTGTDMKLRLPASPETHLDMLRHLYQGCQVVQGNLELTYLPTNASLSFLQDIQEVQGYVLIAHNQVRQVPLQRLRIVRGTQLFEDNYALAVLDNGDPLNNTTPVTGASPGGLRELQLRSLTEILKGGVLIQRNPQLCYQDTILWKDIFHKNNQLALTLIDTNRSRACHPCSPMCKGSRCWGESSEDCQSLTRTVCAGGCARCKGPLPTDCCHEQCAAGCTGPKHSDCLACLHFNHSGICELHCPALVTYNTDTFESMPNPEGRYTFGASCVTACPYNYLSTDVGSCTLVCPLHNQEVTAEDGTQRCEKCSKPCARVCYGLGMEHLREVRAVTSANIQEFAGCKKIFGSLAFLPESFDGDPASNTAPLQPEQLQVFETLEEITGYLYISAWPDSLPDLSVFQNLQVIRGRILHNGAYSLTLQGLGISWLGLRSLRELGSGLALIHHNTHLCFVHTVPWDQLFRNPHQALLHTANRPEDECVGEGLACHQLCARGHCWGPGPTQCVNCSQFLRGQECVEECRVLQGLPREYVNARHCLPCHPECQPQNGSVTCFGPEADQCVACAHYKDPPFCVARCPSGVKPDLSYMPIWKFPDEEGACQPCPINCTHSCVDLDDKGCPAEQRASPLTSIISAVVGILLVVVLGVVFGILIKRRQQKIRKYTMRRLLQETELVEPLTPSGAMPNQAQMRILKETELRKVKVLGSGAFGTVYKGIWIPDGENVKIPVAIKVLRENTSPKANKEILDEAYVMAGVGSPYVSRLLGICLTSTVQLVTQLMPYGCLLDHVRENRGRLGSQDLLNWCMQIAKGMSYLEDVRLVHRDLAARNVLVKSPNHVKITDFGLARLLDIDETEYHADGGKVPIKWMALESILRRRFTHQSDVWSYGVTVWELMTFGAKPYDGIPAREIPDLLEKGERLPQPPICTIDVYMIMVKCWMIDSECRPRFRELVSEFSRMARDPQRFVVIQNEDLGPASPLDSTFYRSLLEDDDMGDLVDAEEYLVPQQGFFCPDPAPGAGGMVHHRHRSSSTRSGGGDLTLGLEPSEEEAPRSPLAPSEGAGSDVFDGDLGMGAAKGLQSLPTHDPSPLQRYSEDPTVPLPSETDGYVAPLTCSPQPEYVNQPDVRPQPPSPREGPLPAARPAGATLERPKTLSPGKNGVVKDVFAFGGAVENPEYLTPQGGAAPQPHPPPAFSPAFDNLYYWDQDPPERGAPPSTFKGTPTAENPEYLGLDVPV
Outline: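 BT-474 cells treated 4 h at 37 °C, 5% CO2 with four-fold dilutions (10 μM to 0.01 nM final). Lysates analysed by ELISA for pERBB2, TMB read at OD 450 nm. % relative activity normalised to no-cell (low) and 0.1% DMSO-treated (high) controls.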

[2] = target: T2, phosphorylated EGFR (pEGFR) (Homo sapiens, UniProt P00533); test: Detection of phosphorylated EGFR (pEGFR) in EGF-stimulated A431 cells (AlphaLISA); assay type: cell-based; conditions: A431 cells (10% FBS), 4 hours incubation, EGF 30 ng/mL for 10 minutes
T2 construct: performed to measure phosphorylated EGFR levels using A431 cells; endogenous in cells; host or cells: A431
T2 sequence (P00533 25-1210): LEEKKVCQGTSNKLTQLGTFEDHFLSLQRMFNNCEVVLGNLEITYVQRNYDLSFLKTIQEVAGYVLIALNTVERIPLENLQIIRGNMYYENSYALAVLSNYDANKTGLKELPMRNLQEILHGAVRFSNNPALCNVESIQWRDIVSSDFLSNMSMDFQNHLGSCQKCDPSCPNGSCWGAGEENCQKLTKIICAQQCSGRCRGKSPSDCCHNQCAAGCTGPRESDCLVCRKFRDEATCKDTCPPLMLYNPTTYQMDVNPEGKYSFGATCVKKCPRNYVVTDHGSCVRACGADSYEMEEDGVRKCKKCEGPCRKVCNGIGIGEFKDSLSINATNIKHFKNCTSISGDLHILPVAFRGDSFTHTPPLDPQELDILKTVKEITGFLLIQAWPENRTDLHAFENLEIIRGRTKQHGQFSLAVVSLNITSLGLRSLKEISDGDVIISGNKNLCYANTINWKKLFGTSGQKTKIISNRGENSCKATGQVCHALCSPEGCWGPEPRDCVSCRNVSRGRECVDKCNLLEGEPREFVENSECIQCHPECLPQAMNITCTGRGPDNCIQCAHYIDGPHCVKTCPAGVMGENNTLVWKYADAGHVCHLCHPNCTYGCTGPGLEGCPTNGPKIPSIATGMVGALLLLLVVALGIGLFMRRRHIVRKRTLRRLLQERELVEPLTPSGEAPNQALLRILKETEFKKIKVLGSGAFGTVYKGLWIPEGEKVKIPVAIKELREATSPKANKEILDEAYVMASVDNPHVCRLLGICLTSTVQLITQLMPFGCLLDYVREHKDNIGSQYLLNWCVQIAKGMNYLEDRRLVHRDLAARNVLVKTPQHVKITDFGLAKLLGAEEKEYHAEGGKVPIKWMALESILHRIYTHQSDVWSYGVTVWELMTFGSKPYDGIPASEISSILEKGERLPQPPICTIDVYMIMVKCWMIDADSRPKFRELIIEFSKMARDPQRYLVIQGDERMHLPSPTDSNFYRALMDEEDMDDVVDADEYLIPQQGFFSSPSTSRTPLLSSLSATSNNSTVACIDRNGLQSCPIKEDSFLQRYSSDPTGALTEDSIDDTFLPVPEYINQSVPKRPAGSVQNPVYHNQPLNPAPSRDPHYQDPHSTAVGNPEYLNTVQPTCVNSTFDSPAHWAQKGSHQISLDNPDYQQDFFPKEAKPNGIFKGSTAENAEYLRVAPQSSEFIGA
Outline: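 Cells in 10% FBS treated with compound 4 h at 37° C., then stimulated 10 min with 30 ng/mL EGF, lysed, and pEGFR measured by AlphaLISA. Inhibition normalized to DMSO and staurosporine controls; IC50 from four-parameter logistic fit.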

Chain of Ba/F3 ERBB2 YVMA (P04626 with tags, fused parts or gaps DUP772-775): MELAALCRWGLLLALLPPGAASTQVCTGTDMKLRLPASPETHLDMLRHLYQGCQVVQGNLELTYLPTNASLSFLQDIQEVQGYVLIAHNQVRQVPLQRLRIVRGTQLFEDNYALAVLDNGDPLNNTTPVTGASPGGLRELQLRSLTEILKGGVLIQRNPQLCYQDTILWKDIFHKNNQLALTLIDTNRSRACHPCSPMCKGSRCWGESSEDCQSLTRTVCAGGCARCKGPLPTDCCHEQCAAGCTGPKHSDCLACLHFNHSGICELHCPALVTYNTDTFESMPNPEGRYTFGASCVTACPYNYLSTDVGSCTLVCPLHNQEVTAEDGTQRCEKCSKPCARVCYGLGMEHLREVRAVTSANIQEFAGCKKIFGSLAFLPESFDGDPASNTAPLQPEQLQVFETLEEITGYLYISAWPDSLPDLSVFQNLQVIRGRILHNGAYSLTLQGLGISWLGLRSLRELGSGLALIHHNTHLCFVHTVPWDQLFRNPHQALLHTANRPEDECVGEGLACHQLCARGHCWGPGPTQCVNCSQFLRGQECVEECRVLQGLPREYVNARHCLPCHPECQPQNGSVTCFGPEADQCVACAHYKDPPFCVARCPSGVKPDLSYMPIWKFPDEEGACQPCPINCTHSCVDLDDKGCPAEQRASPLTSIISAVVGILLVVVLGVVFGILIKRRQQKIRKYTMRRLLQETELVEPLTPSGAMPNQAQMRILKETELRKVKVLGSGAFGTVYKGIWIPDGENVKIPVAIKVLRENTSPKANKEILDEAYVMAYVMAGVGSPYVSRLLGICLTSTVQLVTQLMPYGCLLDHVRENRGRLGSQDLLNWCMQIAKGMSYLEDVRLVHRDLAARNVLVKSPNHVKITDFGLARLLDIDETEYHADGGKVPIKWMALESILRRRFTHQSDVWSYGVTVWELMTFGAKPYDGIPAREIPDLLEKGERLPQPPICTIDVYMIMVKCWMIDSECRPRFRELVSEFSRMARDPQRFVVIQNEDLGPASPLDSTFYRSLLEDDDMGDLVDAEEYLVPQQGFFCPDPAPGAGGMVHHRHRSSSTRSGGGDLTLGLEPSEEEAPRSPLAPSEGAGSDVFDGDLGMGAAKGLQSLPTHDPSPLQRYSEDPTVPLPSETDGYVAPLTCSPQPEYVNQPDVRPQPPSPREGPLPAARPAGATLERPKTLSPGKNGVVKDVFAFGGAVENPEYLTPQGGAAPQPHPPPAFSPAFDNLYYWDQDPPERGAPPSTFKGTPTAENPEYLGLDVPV

Structure (SMILES) | GI50 (Ba/F3 ERBB2 YVMA) | IC50 [1] | IC50 [2]
C=CC(=O)N1CCN(c2cc3c(Nc4ccc(Cc5ccc6c(c5)ncn6C)c(C)c4)ncnc3cn2)C[C@H]1C [Compound 97, (R)-1-(2-methyl-4-(4-((3-methyl-4-((1-methyl-1H-benzo[d]imidazol-5-yl)methyl)phenyl)amino)pyrido[3,4-d]pyrimidin-6-yl)piperazin-1-yl)prop-2-en-1-one] | 0.0524 µM | 0.0242 µM | 4.95 µM
C=CC(=O)N1CCN(c2ccc3ncnc(Nc4ccc(Oc5ccn6ncnc6c5)c(C)c4)c3n2)[C@H](C)C1 [Compound 11, 1-[(3R)-3-methyl-4-{4-[(3-methyl-4-{[1,2,4]triazolo[1,5-a]pyridin-7-yloxy}phenyl)amino]pyrido[3,2-d]pyrimidin-6-yl}piperazin-1-yl]prop-2-en-1-one] | 0.0179 µM | 0.0163 µM | 2.36 µM
C=CC(=O)N1CCN(c2ncc3ncnc(Nc4ccc(Cc5ccn6ncnc6c5)c(C)c4)c3n2)CC1 [Compound 115, 1-(4-(8-((4-([1,2,4]triazolo[1,5-a]pyridin-7-ylmethyl)-3-methylphenyl)amino)pyrimido[5,4-d]pyrimidin-2-yl)piperazin-1-yl)prop-2-en-1-one] | 0.00929 µM | 0.0169 µM | 4.29 µM
CC#CC(=O)N1CC2CC(C1)N2c1ccc2ncnc(Nc3ccc(Oc4ccn5ncnc5c4)c(C)c3)c2n1 [Compound 28, 1-(6-{4-[(3-methyl-4-{[1,2,4]triazolo[1,5-a]pyridin-7-yloxy}phenyl)amino]pyrido[3,2-d]pyrimidin-6-yl}-3,6-diazabicyclo[3.1.1]heptan-3-yl)but-2-yn-1-one] | 0.228 µM | 0.444 µM | > 10 µM
C=CC(=O)N1CCN(c2ccc3ncnc(Nc4ccc(Oc5ccn6ncnc6c5)c(C)c4)c3c2F)C(C)C1 (stereo not drawn) [Compound 114, 1-(4-{5-fluoro-4-[(3-methyl-4-{[1,2,4]triazolo[1,5-a]pyridin-7-yloxy}phenyl)amino]quinazolin-6-yl}-3-methylpiperazin-1-yl)prop-2-en-1-one] | 0.0539 µM | 0.0459 µM | > 10 µM
C=CC(=O)N1[C@H](C)CN(c2ccc3ncnc(Nc4ccc(Oc5ccn6ncnc6c5)c(C)c4)c3n2)C[C@@H]1C [Compound 60, 1-(cis-4-(4-((4-([1,2,4]triazolo[1,5-a]pyridin-7-yloxy)-3-methylphenyl)amino)pyrido[3,2-d]pyrimidin-6-yl)-2,6-dimethylpiperazin-1-yl)prop-2-en-1-one] | 0.0143 µM | 0.0237 µM | 3.78 µM
C=CC(=O)N1CCC[C@H](Nc2ccc3ncnc(Nc4ccc(Oc5ccn6ncnc6c5)c(C)c4)c3n2)C1 [Compound 41, (S)-1-(3-((4-((4-([1,2,4]triazolo[1,5-a]pyridin-7-yloxy)-3-methylphenyl)amino)pyrido[3,2-d]pyrimidin-6-yl)amino)piperidin-1-yl)prop-2-en-1-one] | 0.0197 µM | 0.0181 µM | 1.59 µM
C=CC(=O)N1CCCC2(C1)CN(c1ccc3ncnc(Nc4ccc(Oc5ccn6ncnc6c5)c(C)c4)c3n1)C2 [Compound 46, 1-(2-{4-[(3-methyl-4-{[1,2,4]triazolo[1,5-a]pyridin-7-yloxy}phenyl)amino]pyrido[3,2-d]pyrimidin-6-yl}-2,6-diazaspiro[3.5]nonan-6-yl)prop-2-en-1-one] | 0.0246 µM | 0.0453 µM | > 10 µM
CC#CC(=O)N1CCN(c2ccc3ncnc(Nc4ccc(Oc5ccn6ncnc6c5)c(C)c4)c3n2)[C@@H](C)C1 [Compound 25, 1-[(3S)-3-methyl-4-{4-[(3-methyl-4-{[1,2,4]triazolo[1,5-a]pyridin-7-yloxy}phenyl)amino]pyrido[3,2-d]pyrimidin-6-yl}piperazin-1-yl]but-2-yn-1-one] | 0.0234 µM | 0.0635 µM | > 10 µM
C=CC(=O)N1CCN(c2ccc3ncnc(Nc4ccc(Oc5ccn6ncnc6c5)c(C)c4)c3n2)CC1(C)C [Compound 108, 1-(4-(4-((4-([1,2,4]triazolo[1,5-a]pyridin-7-yloxy)-3-methylphenyl)amino)pyrido[3,2-d]pyrimidin-6-yl)-2,2-dimethylpiperazin-1-yl)prop-2-en-1-one] | 0.0109 µM | 0.01 µM | 0.695 µM
C=CC(=O)N1CCN(c2ncc3ncnc(Nc4ccc(Cc5ccc6c(c5)ncn6C)c(C)c4)c3n2)[C@@H](C)C1 [Compound 77, 1-[(3S)-3-methyl-4-[8-({3-methyl-4-[(1-methyl-1,3-benzodiazol-5-yl)methyl]phenyl}amino)-[1,3]diazino[5,4-d]pyrimidin-2-yl]piperazin-1-yl]prop-2-en-1-one] | 0.0164 µM | 0.0734 µM | 3.55 µM
C=CC(=O)N1CCN(c2cc3c(Nc4ccc(O[C@@H]5CCCOC5)c(C)c4)ncnc3cn2)CC1 [Compound 100, 1-{4-[4-({3-methyl-4-[(3R)-oxan-3-yloxy]phenyl}amino)pyrido[3,4-d]pyrimidin-6-yl]piperazin-1-yl}prop-2-en-1-one] | 0.0985 µM | 0.0637 µM | 0.337 µM
C=CC(=O)N1CC2CCC(C1)N2c1ccc2ncnc(Nc3ccc(Cc4ccn5ncnc5c4)c(C)c3)c2n1 [Compound 95, 1-(8-{4-[(3-methyl-4-{[1,2,4]triazolo[1,5-a]pyridin-7-ylmethyl}phenyl)amino]pyrido[3,2-d]pyrimidin-6-yl}-3,8-diazabicyclo[3.2.1]octan-3-yl)prop-2-en-1-one] | 0.00696 µM | 0.0212 µM | 1.8 µM
C=CC(=O)N1CC[C@@H](Nc2ccc3ncnc(Nc4ccc(Oc5ccn6ncnc6c5)c(C)c4)c3n2)C1 [Compound 44, 1-[(3R)-3-({4-[(3-methyl-4-{[1,2,4]triazolo[1,5-a]pyridin-7-yloxy}phenyl)amino]pyrido[3,2-d]pyrimidin-6-yl}amino)pyrrolidin-1-yl]prop-2-en-1-one] | 0.00258 µM | 0.00633 µM | 0.268 µM
CC#CC(=O)N1CCN(c2ccc3ncnc(Nc4ccc(Oc5ccn6ncnc6c5)c(C)c4)c3n2)C[C@H]1C [Compound 23, 1-[(2R)-2-methyl-4-{4-[(3-methyl-4-{[1,2,4]triazolo[1,5-a]pyridin-7-yloxy}phenyl)amino]pyrido[3,2-d]pyrimidin-6-yl}piperazin-1-yl]but-2-yn-1-one] | 0.00717 µM | 0.0252 µM | 0.53 µM
C=CC(=O)N1CCN(c2ccc3ncnc(Nc4ccc(CN5CCn6ncnc6C5)c(C)c4)c3n2)CC1 [Compound 34, 1-(4-{4-[(3-methyl-4-{5H,6H,8H-[1,2,4]triazolo[1,5-a]pyrazin-7-ylmethyl}phenyl)amino]pyrido[3,2-d]pyrimidin-6-yl}piperazin-1-yl)prop-2-en-1-one] | 0.255 µM | 0.0689 µM | > 10 µM
C=CC(=O)N1CCN(c2ncc3ncnc(Nc4ccc(Cc5ccn6ncnc6c5)c(C)c4)c3n2)C[C@H]1C [Compound 111, (R)-1-(4-(8-((4-([1,2,4]triazolo[1,5-a]pyridin-7-ylmethyl)-3-methylphenyl)amino)pyrimido[5,4-d]pyrimidin-2-yl)-2-methylpiperazin-1-yl)prop-2-en-1-one] | 0.0227 µM | 0.0281 µM | 5.46 µM
Cc1cc(Nc2ncnc3ccc(N4CCN(C(=O)/C=C/CN(C)C)[C@H](C)C4)nc23)ccc1Oc1ccc2c(c1)ncn2C [Compound 80, (2E)-4-(dimethylamino)-1-[(2R)-2-methyl-4-[4-({3-methyl-4-[(1-methyl-1,3-benzodiazol-5-yl)oxy]phenyl}amino)pyrido[3,2-d]pyrimidin-6-yl]piperazin-1-yl]but-2-en-1-one] | 0.0113 µM | 0.0288 µM | 2.76 µM
C=CC(=O)N1CCC[C@@H](Nc2ccc3ncnc(Nc4ccc(Oc5ccn6ncnc6c5)c(C)c4)c3n2)C1 [Compound 42, 1-[(3R)-3-({4-[(3-methyl-4-{[1,2,4]triazolo[1,5-a]pyridin-7-yloxy}phenyl)amino]pyrido[3,2-d]pyrimidin-6-yl}amino)piperidin-1-yl]prop-2-en-1-one] | 0.219 µM | 0.0297 µM | > 10 µM
C=CC(=O)N1CCN(c2ccc3ncnc(Nc4ccc(Oc5ccc(C)nc5)c(C)c4)c3n2)CC1 [Compound 91, 1-(4-(4-(3-methyl-4-(6-methylpyridin-3-yloxy)phenylamino)pyrido[3,2-d]pyrimidin-6-yl)piperazin-1-yl)prop-2-en-1-one] | 0.0175 µM | 0.0219 µM | 0.329 µM
CC#CC(=O)N1C2CCC1CN(c1ccc3ncnc(Nc4ccc(Oc5ccn6ncnc6c5)c(C)c4)c3n1)C2 [Compound 27, 1-(3-{4-[(3-methyl-4-{[1,2,4]triazolo[1,5-a]pyridin-7-yloxy}phenyl)amino]pyrido[3,2-d]pyrimidin-6-yl}-3,8-diazabicyclo[3.2.1]octan-8-yl)but-2-yn-1-one] | 0.0274 µM | 0.0604 µM | 2.8 µM
C=CC(=O)N1CCC2(CCN(c3ccc4ncnc(Nc5ccc(Oc6ccn7ncnc7c6)c(C)c5)c4n3)C2)C1 (stereo not drawn) [Compound 20, 1-(7-{4-[(3-methyl-4-{[1,2,4]triazolo[1,5-a]pyridin-7-yloxy}phenyl)amino]pyrido[3,2-d]pyrimidin-6-yl}-2,7-diazaspiro[4.4]nonan-2-yl)prop-2-en-1-one] | 0.021 µM | 0.0379 µM | > 10 µM
